Assay results reported in patent US12180160B1, “1-(naphthalen-2-yloxy)-3-(piperidin-1-yl)propan-2-ol as an eco-friendly insecticidal agent against Spodoptera littoralis (boisd.)” (priority 2023, dated 2024).
Converted amounts (≈) assume the structure as drawn.

Test system: Spodoptera littoralis larvae (2nd and 4th instars)
Assay: Insecticidal bioassay screening (castor leaf dip)
Type: in vivo
Settings: for LC50 (ppm): after 72 h of treatment; for Toxic ratio: 72 h, fenoxycarb's LC50/compound's LC50 × 100
Protocol: Five concentrations (200, 100, 50, 25, 12.5 ppm) were designed for this synthetic compound and the reference fenoxycarb compound as the dynamic ingredients based on ppm via diluting the commercial formulation.
In this experiment, castor leaves are immersed in each of the previously prepared concentrations of the components for 10 seconds and then left to dry for 60 minutes. Larvae of the second and fourth instars of each checked strain are prepared with treated leaves in gauze-covered glass containers for 72 hrs. An untreated control is made in which leaves are dipped in triton x-100 and distilled water only. Then the preserved leaves were removed & fresh, untreated leaves were provided for 72 hours. Three replicates (10 larvae each) were checked for each concentration. Daily inspection was carried out for all treatments and mortality percentages were recorded 3 days (72 hours) after treatment. The average mortality percentage was corrected employing Abbott's formula. The corrected mortality rate for each of the previously synthesized compounds is statistically calculated according to Finney (1970). Through this rate, the corresponding concentration test lines (LDP lines) are assessed. Fifty and ninety percent mortality are determined, and the regression values for the checked products were previously evaluated.

CCOC(=O)NCCOc1ccc(Oc2ccccc2)cc1 [Fenoxycarb, reference compound]
LC50 (ppm) (2nd instar larvae of S. littoralis): 2.73 ppm
Toxic ratio (2nd instar larvae): 100
LC50 (ppm) (4th instar larvae of S. littoralis): 43.231 ppm
Toxic ratio (4th instar larvae): 1

OC(COc1ccc2ccccc2c1)CN1CCCCC1 (stereo not drawn) [Compound 1, 1-(naphthalen-2-yloxy)-3-(piperidin-1-yl)propan-2-ol]
Toxic ratio (2nd instar larvae): 10.9
Toxic ratio (4th instar larvae): 59.8
LC50 (Spodoptera littoralis, foliar): 25 µg/mL (≈ 87.7 µM)
morphological effect on Spodoptera littoralis (FIGURE) (after administration of the compound): morphological malformations
activity against Spodoptera littoralis (in words) (compared with reference insecticide fenoxycarb): active against Spodoptera littoralis
